Measurements as given in patent US8603818B1, “TGF-beta receptor inhibitors to enhance direct reprogramming” (The General Hospital Corporation, priority 2008, dated 2013).
Where two headings read alike, the source gives them in different places.

Assays:
[1] = test system: four-factor infected MEFs; assay: iPSC induction in four-factor infected MEFs (dox-inducible lentiviruses); format: cell-based, mice; details: for efficiency of iPSC formation / iPSC colonies per well: 1 ng/mL ligand during dox induction, dox 12d, counts day 16
Description: 2A. Alkaline phosphatase stain for primary iPSC colonies, treated with or without the Alk5 inhibitor (1 μM) during dox induction. MEFs were infected with four factors and colonies were stained on day 12 (8d+dox/4d−dox).
2B. Kinetics of reprogramming in MEFs infected with four factors.
2D. Dose-response curve for the Alk5 inhibitor in MEFs induced with four factors.
2E Effect of TGF-β ligands in reprogramming, using four-factor infected MEFs (dox for 12d; counts on day 16 based on Oct4 immunostaining). TGF-β concentrations: low, 1 ng/mL; medium, 2.5 ng/mL; high, 5 ng/mL.
2F. Timing of Alk5 inhibitor action. The Alk5 inhibitor (1 μM) was applied in 4-day time intervals. Control=no inhibitor, Full-time=inhibitor added days 1-16.
2G. […] Inhibitor (1 μM) was applied for either 3 days before (−3 to 0d) or during the first 3 days of dox induction (0 to +3d), or both (−3d to +3d). Control=no inhibitor.
To induce reprogramming, MEFs were infected with a reverse tetracycline transactivator (rtTA) transgene with doxycycline-inducible lentiviruses encoding the four reprogramming factors as previously described (Stadtfeld, M., et al., (2008) Cell Stem Cell 2, 230-240).
It was next sought to establish a dose-response curve for the Alk5 inhibitor. Using four-factor infected MEFs, concentrations of the Alk5 inhibitor were tested over a 1000-fold range, from 4 nM to 4 μM. […] To verify that manipulation of TGF-β signaling affects reprogramming, it was investigated whether pathway activation would inhibit iPSC formation. Using four-factor infected MEFs, increasing concentrations of TGF-β1 or TGF-β2 were applied during the time of dox induction.
To gain further insight into the mode of action of the Alk5 inhibitor, the temporal window during which the inhibitor elicited its strongest effect was examined. In four-factor infected MEFs, the inhibitor was applied in 4-day intervals from days 0-16 of reprogramming. […] To test this, the inhibitor was applied in 3-day time intervals: before dox administration (days −3 to 0) to test for a priming effect, during the first 3 days of reprogramming (days 0 to +3) as a control for the efficiency increase, during both intervals (days−3 to +3) to test for a synergistic effect, and a no-inhibitor control as a baseline measure (FIG. 1G).

Sox2-GFP fibroblasts = test system: Sox2-GFP fibroblasts
Excerpt: 1A. Effect of Alk5 inhibitor treatment on the number of Sox2-GFP+iPS colonies
Fibroblasts cultures were established from mice expressing green-fluorescent protein (GFP) from the genomic locus of the pluripotency gene Sox2. Sox2-GFP fibroblasts were then infected with viruses expressing the reprogramming factors c-Myc, Klf4, Oct4 and Sox2 in the presence and absence of a chemical inhibitor highly specific for the TGF-beta receptor Alk5 (ALK5 inhibitor H). GFP+colonies with embryonic stem (ES) cell morphology were scored 20 days after infection.

secondary STEMCCA MEFs = assay: Dose-response of iPSC induction in secondary STEMCCA MEFs; format: cell-based, mice
Excerpt: 3B. Dose-response curve for the Alk5 inhibitor in secondary STEMCCA MEFs.
Secondary STEMCCA MEFs were used to establish another dose-response curve for the Alk5 inhibitor.

[2] = test system: MEFs infected with OSK or OSMK; details: inhibitor 1 μM
Excerpt: 7A. […] Cells were counted at each timepoint noted, and values represent the fractional change in cell number: (fraction of starting cell number at timepoint b−fraction of starting cell number at timepoint a)/time between b and a.
In support of this, it has been shown that activation of TGF-β signaling can promote an epithelial-to-mesenchymal transition (Valcourt, U., et al., (2005) Mol Biol Cell 16, 1987-2002); fibroblast reprogramming involves a mesenchymal-to-epithelial conversion, which may be enhanced by inhibition of the TGF-β signaling pathway.

[3] = test system: Secondary cells carrying the polycistronic STEMCCA construct; details: dox 2 days; inhibitor 1 μM
Description: 7B. Annexin V and propidium iodide (PI) staining to quantify apoptosis during iPSC induction. […] Annexin V-positive and PI-negative cells represent the fraction of living cells in the process of apoptosis.
Annexin V and propidium iodide staining was done using the Annexin V-FITC kit (BD Pharmingen, 556547) according to manufacturer directions. Cells were analyzed by flow cytometry on a FACSCalibur (BD).

[4] = test system: Sox2, cMyc, Nanog expression in infected MEFs
Description: MEFs were infected with various factor combinations, then treated with dox for three days in the presence or absence of […] Alk5 inhibitor (1 μM). qPCR analysis was done using primers that specifically detect endogenous Sox2 or cMyc, as well as total Nanog. Experiments were done with both biological and technical triplicates, and a Student's T-test (paired, two-tailed) was used to assess statistical significance.
RNA was extracted by using a Qiagen RNeasy kit (74104), then converted to cDNA with the Superscript III First-Strand synthesis system (Invitrogen) using oligo-dT primers. qRT-PCRs were carried out using Brilliant II SYBR Green mix (Stratagene) and run on a Stratagene MXPro400. Reactions were carried out in duplicate with -RT controls, and data were analyzed using the delta-delta Ct method.

human fibroblast = details: data not shown
[5] = test system: embryonic stem cells+MEFs; assay: Reprogramming by cell fusion; details: data not shown
secondary MEF lines = details: inhibitor 2 μM, colonies day 16
Description: Kinetics of reprogramming in two secondary MEF lines. Dox was applied for either 4, 6, 8, or 10 days, with or without the Alk5 inhibitor (2 μM). Colonies were quantified on day 16 based on morphology and dox independence.
To this end, we employed a “secondary system” consisting of MEFs isolated from iPSC-derived chimeras.
In two different secondary MEF lines, the effect of Alk5 inhibition on both the efficiency and kinetics of reprogramming was tested. In this experiment, dox was applied for 4, 6, 8, or 10 days, either in the presence or absence of the Alk5 inhibitor, then quantified iPSC colony number on day 16.

primary MEFs = assay: Replacement of reprogramming factors in primary MEFs infected with factor combinations (OSK, OMK, OK)
Description: Replacement of the role of cMyc with the Alk5 inhibitor (1 μM). MEFs were infected with either three (OSK) or four (OSMK) factors. Dox was withdrawn on day 8 and colonies were quantified on day 12 based on morphology and dox independence.
Replacement of the role of Sox2 with the Alk5 inhibitor (1 μM). MEFs were infected with three (OMK) or two (OK) factors and induced with dox for 16 days, then split on day 18 into media without dox. Image depicts alkaline phosphatase stain of passage 1 cultures.
Experiments were designed to investigate whether the Alk5 inhibitor could function to replace exogenous expression of any of the reprogramming factors. To this end, primary MEFs were infected with different combinations of the four factors in the presence or absence of inhibitor (FIG. 4) and then scored for iPSC formation.
For all of the other replacement conditions, dox was withdrawn on day 16, which would provide sufficient time for reprogramming. […] Nonetheless, colonies were picked from both conditions and tested for their potential to form dox-independent lines.

[6] = 2.5 ng/mL ligand during dox induction
[7] = 5 ng/mL ligand during dox induction

TGF-β1: TGF-β ligand obtained from Peprotech
efficiency of iPSC formation [1]: ~0.0013%
iPSC colonies per well [1]: one
iPSC formation [1, 6]: undetectable
iPSC formation [1, 7]: undetectable

Cc1cccc(-c2n[nH]cc2-c2ccc3ncccc3n2)n1 [Alk5 inhibitor, 2-(3-(6-Methylpyridin-2-yl)-1H-pyrazol-4-yl)-1,5 napththyridine]
fold more GFP+ colonies with ES cell morphology (Sox2-GFP fibroblasts; four factors, scored 20 days after infection, versus absence of inhibitor): 5-10 fold
onset of GFP expression in colonies (Sox2-GFP fibroblasts; versus colonies formed in the absence of the chemical): earlier
effect of inhibitor use during reprogramming on the resulting iPSCs (pluripotency markers, teratoma) ([1]; 4-day iPSCs): no adverse effect
frequency of iPSC colonies ([1]; four days of dox, inhibitor 2 μM, counted day 16): 0.0013%
enhancement in number of iPSC colonies ([1]; highest dose tested (range 4 nM to 4 μM), dox and inhibitor 8 days, Oct4 immunostaining day 12): 30 fold
reprogramming efficiency by timing of inhibitor ([1]; inhibitor 1 μM applied after dox withdrawal (day 12)): no effect
reprogramming efficiency by timing of inhibitor ([1]; inhibitor 1 μM applied during 5-8 day interval): strong enhancement
reprogramming efficiency by timing of inhibitor ([1]; inhibitor 1 μM applied during first four days, dox withdrawn day 12, counts day 16): largest increase in efficiency
number of iPSC colonies (alkaline phosphatase stain) ([1]; inhibitor 1 μM during dox induction, stained day 12 (8d+dox/4d−dox)): striking increase
enhancement in efficiency ([1]; inhibitor 1 μM during first 3 days of factor expression (0 to +3d)): −5 fold
increase in efficiency ([1]; inhibitor 1 μM in −3d/+3d group): comparable to the 0 to +3d group
reprogramming efficiency, priming test ([1]; inhibitor 1 μM prior to factor expression (days 3 to 0), dox withdrawn day 8, counts day 12): slight reduction in efficiency
iPSC formation ([1]; three days of dox, inhibitor 2 μM, counted day 16): not obtained
increase in efficiency at maximum (secondary STEMCCA MEFs; at 0.5 μM): ~60 fold
efficiency at higher doses (secondary STEMCCA MEFs; doses above the maximum): began to decline
concentration giving maximum efficiency (secondary STEMCCA MEFs; dox and inhibitor 8 days, Oct4 immunostaining day 12): 0.5 µM
proliferation during reprogramming ([2]; around day 6): decrease in proliferation
cell number early in reprogramming ([2]; day 2): mitigated the decrease in cell number
apoptosis, Annexin V staining, inhibitor-treated versus untreated cells [3]: negligible difference
induction of cMyc ([4]; cells infected with OSK, dox three days, inhibitor 1 μM): 1.3 fold
change in expression of other genes (Sox2: OMK, OSMK; cMyc: OSMK; Nanog: OMK, OSK, OSMK) ([4]; dox three days, inhibitor 1 μM): No other genes showed a statistically significant change
induction of Sox2 or cMyc ([4]; other cells (OMK or OSMK)): no significant induction
increase in the efficiency of human fibroblast reprogramming (human fibroblast): not observed
effect on reprogramming by cell fusion [5]: negative result
increase in reprogramming (secondary MEF lines; one secondary MEF line): 2 fold
increase in reprogramming (secondary MEF lines; the other secondary MEF line): 30 fold
colony formation in the absence of both cMyc and Sox2 (primary MEFs; OK + inhibitor 1 μM): could not be obtained
dox-independent colonies after passage without dox (primary MEFs; OMK+inhibitor 1 μM): gave rise to dox-independent colonies
colony formation in cMyc replacement condition (primary MEFs; OSK+inhibitor, day 8): colonies were observed
picked colonies forming dox-independent iPSC lines (primary MEFs; Sox2 replacement condition (OMK), inhibitor-treated culture): 3/22
colonies morphologically identical to iPSCs (primary MEFs; Sox2 replacement condition (OMK), inhibitor-treated culture, dox 16 days): 50 colonies
efficiency of OSK+inhibitor relative to four factors alone (OSK+M) (primary MEFs; inhibitor 1 μM, dox withdrawn day 8, colonies day 12): 2.5 fold

B1: TGF-β2: TGF-β ligand obtained from Peprotech (protein, UniProt P61812 303-414, looked up)
Transforming growth factor …: ALDAAYCFRNVQDNCCLRPLYIDFKRDLGWKWIHEPKGYNANFCAGACPYLWSSDTQHSRVLSLYNTINPEASASPCCVSQDLEPLTILYYIGKTPKIEQLSNMIVKSCKCS
efficiency of iPSC formation [1]: ~0.0013%
iPSC colonies per well [1]: one
iPSC formation [1, 6]: undetectable
iPSC formation [1, 7]: undetectable
